Data set [1] deals with T1, recombinant human CAT protein (Homo sapiens, UniProt P04040).
T1 construct: commercial recombinant protein
T1 sequence (P04040 2-527): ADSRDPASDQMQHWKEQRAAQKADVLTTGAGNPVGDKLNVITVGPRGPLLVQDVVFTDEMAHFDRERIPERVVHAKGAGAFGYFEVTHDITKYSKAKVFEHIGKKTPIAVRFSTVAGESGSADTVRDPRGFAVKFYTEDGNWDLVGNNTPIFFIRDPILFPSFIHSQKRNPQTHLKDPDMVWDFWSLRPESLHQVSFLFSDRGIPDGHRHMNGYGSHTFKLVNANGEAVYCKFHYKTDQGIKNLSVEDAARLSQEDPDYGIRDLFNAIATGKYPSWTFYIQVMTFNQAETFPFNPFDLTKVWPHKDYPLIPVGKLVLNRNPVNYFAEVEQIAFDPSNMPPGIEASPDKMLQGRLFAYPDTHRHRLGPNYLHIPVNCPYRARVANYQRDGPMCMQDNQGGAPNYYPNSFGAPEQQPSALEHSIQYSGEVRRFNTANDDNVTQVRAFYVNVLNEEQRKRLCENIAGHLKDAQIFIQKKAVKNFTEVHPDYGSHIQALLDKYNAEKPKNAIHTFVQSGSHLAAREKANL
The data set is described as follows: catalase activity kit. Format: biochemical. The note with it: 20 min preincubation with 1 μM 13-HODE, room temperature not stated.

For data set [2], the target named is T2, Recombinant mouse catalase protein (CAT) (Mus musculus, UniProt P24270).
T2 construct: commercial recombinant protein, immobilised on CM5 chip
T2 sequence (P24270 2-527): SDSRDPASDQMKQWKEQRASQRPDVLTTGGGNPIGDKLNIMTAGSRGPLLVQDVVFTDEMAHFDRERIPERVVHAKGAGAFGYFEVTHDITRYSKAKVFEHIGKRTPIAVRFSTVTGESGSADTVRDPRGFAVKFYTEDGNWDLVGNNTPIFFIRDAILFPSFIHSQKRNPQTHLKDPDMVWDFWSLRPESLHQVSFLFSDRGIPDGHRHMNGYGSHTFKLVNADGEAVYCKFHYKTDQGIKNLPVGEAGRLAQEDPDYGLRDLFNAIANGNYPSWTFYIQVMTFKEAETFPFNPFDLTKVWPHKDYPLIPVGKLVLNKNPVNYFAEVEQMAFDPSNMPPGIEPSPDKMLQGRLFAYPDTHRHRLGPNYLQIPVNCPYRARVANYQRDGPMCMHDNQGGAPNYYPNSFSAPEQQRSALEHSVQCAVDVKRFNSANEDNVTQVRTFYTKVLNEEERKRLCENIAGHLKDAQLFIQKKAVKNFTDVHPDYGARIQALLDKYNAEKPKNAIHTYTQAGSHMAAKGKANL
The data set is described as follows: surface plasmon resonance (Biacore T200), steady-state affinity. Format: binding.

Data set [3] concerns the molecule itself. The data set is described as follows: cross-linking; primary mouse hepatocytes treated with or without 1 uM 13-HODE for 6 h, then 100 uM DSS crosslinker for 1 h before protein extraction; western blot for CAT tetramer and monomer; monomer to tetramer. In general terms: A western blot detects proteins with antibodies after separation by electrophoresis.

The source of these data is paper PMC10710422, “Senescence-associated 13-HODE production promotes age-related liver steatosis by directly inhibiting catalase activity” (Nature Communications, 2023).

The Kd is the constant that tells how readily two partners part at equilibrium. As a reminder, the stoichiometry N is a count of units in the complex or per binding partner.

For `CCCCCC(O)/C=C/C=C\CCCCCCCC(=O)O` (stereo not drawn) [13-HODE], the “CAT activity at 1 μM” value in data set [1] was “incubated recombinant CAT protein with 13-HODE and found that it inhibited CAT activity in vitro”. `CCCCC[C@H](O)/C=C/C=C\CCCCCCCC(=O)O` [13(S)-HODE]: in data set [2], the Kd is 2420 nM.

B1: Catalase (CAT) (enzyme, UniProt P24270 1-527, looked up)
chain: MSDSRDPASDQMKQWKEQRASQRPDVLTTGGGNPIGDKLNIMTAGSRGPLLVQDVVFTDEMAHFDRERIPERVVHAKGAGAFGYFEVTHDITRYSKAKVFEHIGKRTPIAVRFSTVTGESGSADTVRDPRGFAVKFYTEDGNWDLVGNNTPIFFIRDAILFPSFIHSQKRNPQTHLKDPDMVWDFWSLRPESLHQVSFLFSDRGIPDGHRHMNGYGSHTFKLVNADGEAVYCKFHYKTDQGIKNLPVGEAGRLAQEDPDYGLRDLFNAIANGNYPSWTFYIQVMTFKEAETFPFNPFDLTKVWPHKDYPLIPVGKLVLNKNPVNYFAEVEQMAFDPSNMPPGIEPSPDKMLQGRLFAYPDTHRHRLGPNYLQIPVNCPYRARVANYQRDGPMCMHDNQGGAPNYYPNSFSAPEQQRSALEHSVQCAVDVKRFNSANEDNVTQVRTFYTKVLNEEERKRLCENIAGHLKDAQLFIQKKAVKNFTDVHPDYGARIQALLDKYNAEKPKNAIHTYTQAGSHMAAKGKANL
notes: Catalase, mouse, endogenous in primary hepatocytes of C57BL/6 mice; Detected by western blot as monomer and tetramer after DSS cross-linking; source: endogenous, primary mouse hepatocytes (cross-linked in cells before protein extraction)
B1: in data set [3], the “stoichiometry N” value came to 4.
